In publication PMC7377239, “Cardiovascular Effects of Polychlorinated Biphenyls and Their Major Metabolites” (Environmental Health Perspectives, 2020):
Like-named read-outs stand apart in the source and are kept apart here.

System: iCell cardiomyocytes (human iPSC-derived cardiomyocytes)
Assay: Intracellular Ca2+ flux / beating parameters in iCell cardiomyocytes (FLIPR tetra), 90 min or 24 h
Type: cell-based
Conditions: Homo sapiens, Cardiomyocyte, 0.00 µM = 100.00; for activity at 0.1 µM: 0.10 µM
Protocol: Details on cardiomyocyte cell culture are described in detail elsewhere ([Grimm et al. 2015b]; [Sirenko et al. 2013a]). Briefly, tissue-culture treated 384 well plates were gelatinized with 25μL per well of 0.1% (w/v) gelatin in water for 2 h at 37°C and 5% CO2 . Individual vials of cells were thawed for 4 min in a water bath maintained at 37°C. Thawed cells were resuspended in 10ml plating medium containing 1:500 (vol/vol) penicillin/streptomycin solution at room temperature (RT). Live cell counts for each cell suspension were determined by trypan blue staining and cells were further diluted to provide final cell densities of 2×10^5 viable cells/ml. Thus, 5,000 cells suspended in 25μL media were transferred per well after the gelatin solution had been discarded. Cell culture plates were rested for 30 min at RT before they were incubated for 48 h at 37°C and 5% CO2 . Then, a media exchange with 30μL of fresh maintenance medium containing 1:500 (vol/vol) penicillin/streptomycin solution was performed, and cell media were subsequently changed every 48 h for 12 d. On the experiment day, the medium was completely exchanged with either 25μL (for Ca^2+ flux assay) or 40μL (for imaging) of fresh medium.
Responses of iCell®-cardiomyocytes to drugs and chemicals were evaluated using intracellular Ca^2+ flux measurements ([Grimm et al. 2015b]; [Sirenko et al. 2013b]). For experiments, 20 mM stock solutions of PCBs and PCB metabolites were prepared in DMSO ( 200× ). Chemical working solutions ( 5× ) were prepared using cardiomyocyte maintenance medium and contained 2.5% (vol/vol) DMSO. These chemical master plates were prepared to include all chemicals in concentration–response (0.05, 0.5, 5, 50, and 500μM ). Negative controls included media-only and vehicle control (i.e., 0.5% vol/vol DMSO in cell culture media) wells. Positive assay controls were consistent with previously published reports ([Grimm et al. 2018]) and included TAB ( 50μM ) as a cytotoxic control, and isoproterenol ( 0.1–10μM ), propranolol ( 0.1–5 μM ), cisapride ( 0.01–1μM ), and doxorubicin ( 0.1–5μM ) as chemicals associated with specific effects on beating and ion flux. Each test chemical was screened in triplicate for each concentration.
Experiments started with the addition of 25μL of prewarmed 2× concentrated calcium dye reagent to sample wells containing 25μL maintenance media. Microplates were then acclimated for 2 h at 37°C. Following equilibration, cardiomyocyte sample wells were treated simultaneously by the addition of 12.5μL of prewarmed 5× chemical solution to iCell®-cardiomyocytes using the automated liquid handler in the FLIPR tetra (Molecular Devices). Treated cell cultures were incubated for either 90 min or 24 h. After the conclusion of the treatment period, the Ca^2+ flux was measured for 100 s at a frequency of 8 Hz using the integrated fluorescence plate reader in the FLIPR tetra (Molecular Devices) using an emission wavelength range of λemission=515–575 nm ( λexcitation=470–495 nm ). Additional instrument settings included exposure time per read of 0.05s, a gain of 2000, an excitation intensity of 30%, and an internal temperature of 37°C.
Ca^2+ flux data were processed in R studio (version 1.0.136, with R version 3.3.2; R Development Core Team) as described elsewhere ([Blanchette et al. 2019]; [Burnett et al. 2019]). Calculated quantitative metrics included the means and coefficients of variation (CV) of the peak height, which can be indicative of cytotoxicity, inhibition, or stimulation of beating. Means of peak frequency, an indicator of positive or negative […], and CV of peak spacing, an indicator of irregular beating, were also derived from Ca^2+ flux traces. Finally, the mean ratio of the decay over rise time was calculated. Increases in the decay/rise time ratio are reflective of delayed repolarization and are a measure for QT prolongation. […]

[1] = 1.5 h, read-out: cm.amp.avg.90min
[2] = 1.5 h, read-out: cm.amp.cv.90min
[3] = 1.5 h, read-out: cm.decay.rise.90min
[4] = 1.5 h, read-out: cm.spacing.cv.90min
[5] = 24 h, read-out: cm.amp.avg.24hrs
[6] = 24 h, read-out: cm.amp.cv.24hrs
[7] = 24 h, read-out: cm.decay.rise.24hrs
[8] = 24 h, read-out: cm.spacing.cv.24hrs

## Oc1ccc(O)c(-c2ccc(Cl)cc2)c1 [2',5'-DiOH PCB3]
[1]
  activity at 0.01 µM: 102%
  activity at 0.1 µM: 105%
  activity at 1 µM: 106%
  activity at 10 µM: 110%
  activity at 100 µM: 9.07%
[2]
  activity at 0.01 µM: 90%
  activity at 0.1 µM: 110%
  activity at 1 µM: 93.3%
  activity at 10 µM: 112%
  activity at 100 µM: 380%
1.5 h, read-out: cm.bpm.90min
  activity at 0.01 µM: 99.1%
  activity at 0.1 µM: 100%
  activity at 1 µM: 92.8%
  activity at 10 µM: 104%
  activity at 100 µM: 7.52%
[3]
  activity at 0.01 µM: 97.4%
  activity at 0.1 µM: 95.6%
  activity at 1 µM: 98.3%
  activity at 10 µM: 105%
  activity at 100 µM: 21.5%
[4]
  activity at 0.01 µM: 113%
  activity at 0.1 µM: 94%
  activity at 1 µM: 107%
  activity at 10 µM: 132%
  activity at 100 µM: 381%
[5]
  activity at 0.01 µM: 161%
  activity at 0.1 µM: 147%
  activity at 1 µM: 141%
  activity at 10 µM: 0%
  activity at 100 µM: 0%
[6]
  activity at 0.01 µM: 75.5%
  activity at 0.1 µM: 75%
  activity at 1 µM: 69.9%
  activity at 10 µM: 0%
  activity at 100 µM: 0%
24 h, read-out: cm.bpm.24hrs
  activity at 0.01 µM: 105%
  activity at 0.1 µM: 100%
  activity at 1 µM: 92.6%
  activity at 10 µM: 0%
  activity at 100 µM: 0%
[7]
  activity at 0.01 µM: 98.5%
  activity at 0.1 µM: 101%
  activity at 1 µM: 109%
  activity at 10 µM: 0%
  activity at 100 µM: 0%
[8]
  activity at 0.01 µM: 110%
  activity at 0.1 µM: 93.3%
  activity at 1 µM: 89%
  activity at 10 µM: 0%
  activity at 100 µM: 0%
